Holding throughout (test): Michaelis-Menten halogenation kinetics
Data set [1] addresses T1, RadH (Floropilus chiversii, UniProt C5H881, D465E/T501S).
T1 construct: recombinant, overproduced in E. coli, purified
Type of data set: biochemical. To be noted: kinetic assay conditions in supplement (Figures S4-S10); table prints D456E/T501S, text prints D465E/T501S throughout. The source says: (§1) Michaelis-Menten halogenation kinetics on RadH

Data set [2] deals with T2, RadH (Floropilus chiversii, UniProt C5H881).
T2 construct: recombinant, overproduced in E. coli, purified
Type of data set: biochemical. To be noted: kinetic assay conditions in supplement (Figures S4-S10).
Text: as §1

Data set [3] has as its system O=c1cc(-c2ccccc2)oc2cc(O)ccc12. Type of data set: biochemical, Floropilus chiversii. Conditions: kinetic assay conditions in supplement (Figures S4-S10).
Text: as §1

Setting [4] is: table prints D456E/T501S, text prints D465E/T501S throughout.

T1 sequence (C5H881 whole entry D465E/T501S): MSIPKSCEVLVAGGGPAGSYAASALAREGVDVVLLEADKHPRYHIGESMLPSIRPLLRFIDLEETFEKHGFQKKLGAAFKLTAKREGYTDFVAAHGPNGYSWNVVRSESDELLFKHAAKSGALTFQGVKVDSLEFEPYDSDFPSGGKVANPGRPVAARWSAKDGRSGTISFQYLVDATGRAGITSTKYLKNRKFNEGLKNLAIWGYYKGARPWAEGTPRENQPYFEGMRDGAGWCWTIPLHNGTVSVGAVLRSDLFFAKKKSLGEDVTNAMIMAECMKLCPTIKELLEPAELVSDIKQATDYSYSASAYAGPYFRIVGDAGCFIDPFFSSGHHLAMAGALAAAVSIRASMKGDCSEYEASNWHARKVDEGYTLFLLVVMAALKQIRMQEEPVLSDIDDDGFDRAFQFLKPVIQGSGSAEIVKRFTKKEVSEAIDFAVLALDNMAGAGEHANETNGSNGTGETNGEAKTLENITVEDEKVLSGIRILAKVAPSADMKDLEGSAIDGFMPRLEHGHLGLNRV
T2 sequence (C5H881 whole entry): as the sequence (C5H881 whole entry D465E/T501S) above, with E465D, S501T counted along it

Turning to `O=c1ccc2ccc(O)cc2o1` [compound 8, 7-hydroxycoumarin], the Km on RadH [1] worked out at 465 ± 4 µM; at RadH [2], 379 ± 5 µM.

Regarding `O=c1c(-c2ccc(O)cc2)coc2cc(O)ccc12` [compound 14, 14], the Km at RadH [1] was 315 ± 1 µM; at RadH [2], 281 ± 2 µM.

Turning to RadH (Floropilus chiversii), in data set [3], the Km was 347 ± 2 µM, the kcat worked out at 0.000533 ± 5e-05 s⁻¹ and the kcat/Km stood at 1.53 ± 0.15 M⁻¹ s⁻¹.

With `Cc1cc(=O)oc2cc(O)ccc12` [compound 11, 11], the Km at RadH [2] is 364 ± 18 µM.

As for `O=c1cc(C(F)(F)F)c2ccc(O)cc2o1` [compound 10, 10], at RadH [2], the Michaelis-Menten constant (Km) was 309 ± 19 µM.

As to `Oc1ccc2cnccc2c1` [compound 6, 6-hydroxyisoquinoline], the values for the Km at RadH [1] and on RadH [2] were 268 ± 10 µM and 277 ± 3 µM, respectively.

As for “RadH (Floropilus chiversii; D465E/T501S)”, in data set [3] (setting [4]), the Km is 383 ± 4 µM, the kcat was found to be 0.000517 ± 3.33e-05 s⁻¹ and the kcat/Km worked out at 1.35 ± 0.0833 M⁻¹ s⁻¹.

These data come from article PMC5637929, “RadH: A Versatile Halogenase for Integration into Synthetic Pathways” (Angewandte Chemie (International Ed. in English), 2017).
